Patent US20090215884A1, “METHOD FOR WOUND HEALING” (priority 2005, published 2009)

System: PBMC
Assay: Cytokine production of stimulated PBMC (Bead Suspension Assay)
Format: cell-based, human
Conditions: 24 h
Protocol: PEP005 was provided as a dry powder. A stock solution of 23.55 mM was prepared in DMSO and aliquots were stored at −20° C. An aliquot of the stock solution was thawed on the day of use and stored at room temperature prior to and during dosing. Intermediate dilution steps were carried out using DMEM cell culture medium.
For the isolation of PBMC freshly drawn human blood treated with Li-Heparin as an anti-coagulant was used. Cells were diluted with three volumes of CliniMACS PBS/EDTA Buffer (Miltenyi, Bergisch Gladbach), carefully layered over FicollPaque (Amersham Biosciences, Freiburg) in a conical tube and centrifuged at 400×g for 40 minutes at 20° C. in a swinging-bucket rotor without brake. The upper layer was aspirated, leaving the mononuclear cell layer undisturbed at the interphase. The interphase cells (lymphocytes, monocytes and thrombocytes) were carefully transferred into a new conical tube. The conical tube was filled with CliniMACS PBS/EDTA Buffer and centrifuged at 300×g for 10 minutes at 20° C. The supernatant was completely removed. For removal of platelets the cell pellet was resuspended in 50 ml of Buffer and centrifuged at 200×g for 10 minutes at 20° C. The supernatant was completely removed and the last washing step was repeated. Cells were resuspended in DMEMMedium (Invitrogen, Karlsruhe) and counted in a Neubauer-hemocytometer.
For the stimulation of PBMC 250.000 cells per well were seeded in a 96-well plate. PBMC of three different healthy donors were stimulated with PEP005 in three different concentrations (1, 10 and 100 nM) or LPS 1 μg/ml (Linaris, Wertheim-Bettingen), PMA 10 ng/ml (Sigma, Deisenhofen) and Ionomycin 1 μg/ml (Sigma, Deisenhofen), respectively. Cells were incubated at 37° C. and 5% CO^2 in a humidified atmosphere for 24 h.
In a typical Bead Suspension Assay a cytokine is captured from a supernatant with bead bound antibodies. The cytokine is quantified with a secondary antibody to complete a sandwich immunoassay. Cytokine concentrations are calculated with the help of a standard curve for each cytokine.
The cytokines IL-1β, IL-2, IL-6, IL-8 and TNF-α were quantitatively measured in the supernatant of the PBMC with a BioRad BioPlex System according to the manufacturer's intructions. All samples were measured in duplicates. All units of detected proteins are pg/ml.
To investigate the immunostimulating effects of PEP005, PBMCs from three different healthy donors were exposed for 24 h to PEP005 at concentrations of 1, 10 and 100 nM. The secretion of IL-1β, IL-2, IL-6, IL-8 and TNF-α into the supernatant was quantitatively measured by flow cytometry with the Bead Suspension Assays. The results are depicted in Tables 1.4-1.8.

[1] = PBMC donor three, PEP005 100 nM
[2] = PBMCs from the three donors, 1 nM PEP005

With `C/C=C(/C)C(=O)O[C@H]1C(C)=C[C@]23C(=O)[C@@H](C=C(CO)[C@@H](O)[C@]12O)[C@H]1[C@@H](C[C@H]3C)C1(C)C` [PEP005, ingenol-3-angelate] the “elevated IL-6 levels in PBMC supernatant (parenthetical, condition not stated)” value was about 9 fold, the IL-1β production (PBMC donor one, PEP005 1 nM) was 94.49 pg/mL and the IL-2 production (PBMC donor one, PEP005 1 nM) was 82.68 pg/mL. For the same compound, the IL-6 production (PBMC donor one, PEP005 1 nM) was 320.61 pg/mL, the IL-8 production (PBMC donor one, PEP005 1 nM) was 13652.6 pg/mL and the TNF-α production (PBMC donor one, PEP005 1 nM) was 148.42 pg/mL. For the same compound, the IL-1β production (PBMC donor one, PEP005 10 nM) was 61.62 pg/mL, the IL-2 production (PBMC donor one, PEP005 10 nM) was 60.3 pg/mL and the IL-6 production (PBMC donor one, PEP005 10 nM) was 216.09 pg/mL. The IL-8 production (PBMC donor one, PEP005 10 nM) was 9418.94 pg/mL, the TNF-α production (PBMC donor one, PEP005 10 nM) was 76.14 pg/mL and the IL-1β production (PBMC donor one, PEP005 100 nM) was 0 pg/mL. The IL-2 production (PBMC donor one, PEP005 100 nM) was 10.56 pg/mL, the IL-6 production (PBMC donor one, PEP005 100 nM) was 0 pg/mL and the IL-8 production (PBMC donor one, PEP005 100 nM) was 52.77 pg/mL. It also gave a TNF-α production (PBMC donor one, PEP005 100 nM) of 19.44 pg/mL, an IL-1β production (PBMC donor three, PEP005 1 nM) of 314.73 pg/mL and an IL-2 production (PBMC donor three, PEP005 1 nM) of 54.61 pg/mL. For the same compound, the IL-6 production (PBMC donor three, PEP005 1 nM) was 131.46 pg/mL, the IL-8 production (PBMC donor three, PEP005 1 nM) was 28029.68 pg/mL and the TNF-α production (PBMC donor three, PEP005 1 nM) was 130.99 pg/mL. It also gave an IL-1β production (PBMC donor three, PEP005 10 nM) of 173.33 pg/mL, an IL-2 production (PBMC donor three, PEP005 10 nM) of 31.53 pg/mL and an IL-6 production (PBMC donor three, PEP005 10 nM) of 61.66 pg/mL. It also gave an IL-8 production (PBMC donor three, PEP005 10 nM) of 11438.34 pg/mL, a TNF-α production (PBMC donor three, PEP005 10 nM) of 73.48 pg/mL and an IL-1β production [1] of 10.92 pg/mL. The IL-2 production [1] was 2 pg/mL, the IL-6 production [1] was 0 pg/mL and the IL-8 production [1] was 205.36 pg/mL. The TNF-α production [1] was 12.93 pg/mL, the IL-1β production (PBMC donor two, PEP005 1 nM) was 125.17 pg/mL and the IL-2 production (PBMC donor two, PEP005 1 nM) was 17.86 pg/mL. The IL-6 production (PBMC donor two, PEP005 1 nM) was 69.48 pg/mL, the IL-8 production (PBMC donor two, PEP005 1 nM) was 12148.42 pg/mL and the TNF-α production (PBMC donor two, PEP005 1 nM) was 90.72 pg/mL. It also gave an IL-1β production (PBMC donor two, PEP005 10 nM) of 98.04 pg/mL, an IL-2 production (PBMC donor two, PEP005 10 nM) of 19.47 pg/mL and an IL-6 production (PBMC donor two, PEP005 10 nM) of 73.97 pg/mL. The IL-8 production (PBMC donor two, PEP005 10 nM) was 18220.74 pg/mL, the TNF-α production (PBMC donor two, PEP005 10 nM) was 71.6 pg/mL and the IL-1β production (PBMC donor two, PEP005 100 nM) was 11.76 pg/mL. For the same compound, the IL-2 production (PBMC donor two, PEP005 100 nM) was 12.84 pg/mL, the IL-6 production (PBMC donor two, PEP005 100 nM) was 95.43 pg/mL and the IL-8 production (PBMC donor two, PEP005 100 nM) was 217.52 pg/mL. The TNF-α production (PBMC donor two, PEP005 100 nM) was 35.75 pg/mL, the “increase of IL-2 levels in the supernatant” value [2] was 20 to 80 fold and the “mean increase of IL-2 levels in the supernatant” value [2] was “approximately 50 fold”. For the same compound, the “increase of IL-6 levels in PBMC supernatants” value (PEP005 at 1 nM) was 4 to 6 fold, the “increase of IL-8 levels in the supernatant of PBMCs” value (PEP005 at 1 nM) was 3- to 5 fold and the “TNF-α levels in supernatants of PBMCs” value (all three donors, PEP005 at 1 nM) was “approximately 120 nM”.
